From patent US7498304B2, “Angiogenesis-modulating compositions and uses” (Curis, Inc., priority 2002, dated 2009) come the findings set out here.

In one assay the target is T1, patched-1 (Homo sapiens, UniProt Q13635).
T1 sequence (Q13635 1-1447): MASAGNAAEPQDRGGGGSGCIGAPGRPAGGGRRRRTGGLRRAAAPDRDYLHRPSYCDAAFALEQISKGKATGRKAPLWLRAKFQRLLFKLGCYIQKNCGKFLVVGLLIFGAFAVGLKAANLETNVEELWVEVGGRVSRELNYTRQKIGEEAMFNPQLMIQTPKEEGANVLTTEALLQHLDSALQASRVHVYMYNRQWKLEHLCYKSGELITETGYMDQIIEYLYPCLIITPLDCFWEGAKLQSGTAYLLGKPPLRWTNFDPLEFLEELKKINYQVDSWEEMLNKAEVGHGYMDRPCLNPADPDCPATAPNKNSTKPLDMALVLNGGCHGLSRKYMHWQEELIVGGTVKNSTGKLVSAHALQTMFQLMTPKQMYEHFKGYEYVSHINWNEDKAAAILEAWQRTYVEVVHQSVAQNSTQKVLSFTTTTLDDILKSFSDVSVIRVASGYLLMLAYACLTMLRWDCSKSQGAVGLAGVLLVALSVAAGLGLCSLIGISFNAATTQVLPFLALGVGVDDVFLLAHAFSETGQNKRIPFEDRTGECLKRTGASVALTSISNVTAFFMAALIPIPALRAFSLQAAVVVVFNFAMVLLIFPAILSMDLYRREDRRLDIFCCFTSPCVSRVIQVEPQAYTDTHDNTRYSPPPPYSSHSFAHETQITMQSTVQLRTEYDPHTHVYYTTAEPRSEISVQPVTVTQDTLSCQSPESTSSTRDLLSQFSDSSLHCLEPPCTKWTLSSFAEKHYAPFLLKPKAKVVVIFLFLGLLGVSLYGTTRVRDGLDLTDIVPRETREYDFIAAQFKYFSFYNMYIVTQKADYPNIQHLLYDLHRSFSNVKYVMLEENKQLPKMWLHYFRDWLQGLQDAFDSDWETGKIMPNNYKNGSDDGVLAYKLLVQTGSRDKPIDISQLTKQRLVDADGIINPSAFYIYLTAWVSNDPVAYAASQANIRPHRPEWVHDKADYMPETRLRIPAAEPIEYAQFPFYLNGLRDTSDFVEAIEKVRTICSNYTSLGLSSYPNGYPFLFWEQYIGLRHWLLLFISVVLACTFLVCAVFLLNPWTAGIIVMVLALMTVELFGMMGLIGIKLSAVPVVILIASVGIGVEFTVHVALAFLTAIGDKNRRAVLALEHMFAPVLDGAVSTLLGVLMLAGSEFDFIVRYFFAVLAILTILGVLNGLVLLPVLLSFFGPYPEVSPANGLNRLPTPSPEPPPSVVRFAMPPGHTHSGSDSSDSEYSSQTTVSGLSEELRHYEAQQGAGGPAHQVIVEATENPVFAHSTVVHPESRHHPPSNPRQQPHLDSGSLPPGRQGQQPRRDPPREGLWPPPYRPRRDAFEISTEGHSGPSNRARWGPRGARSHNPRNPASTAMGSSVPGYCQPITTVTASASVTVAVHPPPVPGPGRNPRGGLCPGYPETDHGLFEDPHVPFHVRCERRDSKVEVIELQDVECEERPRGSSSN
The assay can be described thus: binding to the hedgehog receptor patched-1. Particulars: compared with mature Shh.

A further assay relates to C3H10T1/2 cells. The assay can be described thus: C3H10T1/2 alkaline phosphatase induction assay. The assay is classed as cell-based, mouse. The text has this:
Persons having ordinary skill in the art can easily test any putative hedgehog antagonist for these properties. In particular, the mouse embryonic fibroblast line C3H10T1/2 is a mesenchymal stem cell line that is hedgehog responsive. Hedgehog treatment of the cells causes an upregulation of gli-1 and patched-1 (known indicators of hedgehog dependent signaling) and also causes induction of alkaline phosphatase activity, an indicator that the cells have differentiated down the chondrocyte/ bone osteoblast lineage. Several hedgehog variants are unable to elicit a hedgehog-dependent response on C3H10T1/2 cells, but they competed with mature hedgehog for function and therefore serve as functional antagonists. […]
The mouse embryonic fibroblast line C3H10T1/2 is a mesenchymal stem cell line that, under defined conditions, can differentiate into adipocytes, chondrocytes, and bone osteoblasts (Taylor, S. M., and Jones, P. A., Cell 17: 771-779 (1979) and Wang, E. A., et al., Growth Factors 9: 57-71 (1993)). […] Shh has a similar effect on C3H10T1/2 cells (Kinto, N. et al., FEBS Letts. 404: 319-323 (1997)) and we routinely use the alkaline phosphatase induction by Shh as a quantitative measure of its in vitro potency. Shh treatment also produces a dose-dependent increase in gli-1 and ptc-1 expression, which can be readily detected by a PCR-based analysis.

The test system of the next assay is matrigel plug. Description: subcutaneous matrigel plug assay of angiogenesis. Particulars: mouse, in vivo. The procedure: Hedgehog was also found to induce angiogenesis in the subcutaneous matrigel plug assay (Passaniti et al., 1992). Doses of 2 to 10 ug/ml of octyl, myr, PEG II or II-Fc fusion forms of human recombinant Shh were prepared in 0.5 ml of matrigel containing 40 IU/ml of heparin and injected subcutaneously into C57BL6 mice (3-5 mo. old, 5 mice/treatment group). The mice were sacrificed between 6-7 days after injection and the matrigel plug was dissected for visual inspection and histological analysis. […] The results of the matrigel plug support the finding that hedgehog can induce angiogenesis in vivo.

Assay [1] deals with Hedgehog pathway signaling (Shh-induced Gli-transcription) in 10T1/2(s12) cells. The assay can be described thus: Gli-Luc assay, OCT-SHH-induced luciferase reporter. The assay is classed as cell-based, mouse. Particulars: Gli-Luc response, OCT-SHH 0.3 μg/ml. The procedure:
Compounds to be tested are dissolved in DMSO to a concentration of 10 mM, and stored at −20° C. To activate the Hedgehog pathway in the assay cells, an octylated (lipid-modified) form of the N-terminal fragment of the Sonic Hedgehog protein (OCT-SHH) is used. This N-terminal SHH fragment is produced bacterially.
Compounds may be tested in the “Gli-Luc” assay below, using the cell line 10T(s12), wherein the cells contain a Hedgehog-responsive reporter construct utilizing Luciferase as the reporter gene. In this way, Hedgehog pathway signaling activity can be measured via the Gli-Luc response.
10t1/2(s12) cells are plated in a 96-well micro-titer plate (MTP) at 20,000 cells/well in full medium [DMEM with 10% FBS]. Then plates are placed in the incubator for incubation overnight (O/N), at 37° C. and 5% CO2. After 24 h, the medium is replaced with Luciferase-assay medium (DMEM with 0.5% FBS). Compounds are thawed and diluted in assay medium at 3:1000 (about 300-fold) resulting in a starting concentration of about 30 μM.
Subsequently, 150 μl of each 30 μM sample is added to the first wells (in triplicate). The MTP samples are then diluted at 3-fold dilutions to a total of seven wells, ultimately resulting in a regiment of seven dilutions in triplicate, for each compound. Next, the protein ligand OCT-SHH is diluted in Luciferase-assay medium and added to each well at a final concentration of 0.3 μg/ml. Plates are then returned to the incubator for further incubation O/N, at 37° C. and 5% CO2. After about 24 h, plates are removed from the incubator and the medium is aspirated/discarded. Wells are washed once with assay buffer [PBS+1 mM Mg^2+ and 1 mM Ca^2+]. Then 50 μl of assay buffer is added to each well. The Luciferase assay reagent is prepared as described by the vendor (LucLite kit from Packard), and 50 μl is added to each well. Plates are incubated at room temperature (RT) for about 30 minutes after which the signals are read, again at RT, on a Topcount (Packard).
The discovery of compounds that inhibit Shh-induced Gli-transcription exemplifies the utility of the claims in this patent.

A further assay relates to mouse cornea. Description: mouse corneal pocket model of angiogenesis. The assay is classed as in vivo. As for the experimental part: To confirm the angiogenic activity of hedgehog in another well accepted model of angiogenesis, we tested the ability of hedgehog protein to induce neovascularization in the mouse corneal model pocket model of angiogenesis.
Animals were anesthetized by pentobarbital intraperitoneal injection (160 mg/kg). Corneal pockets were created in the eyes of each mouse and a 0.34×0.34 mm sucrose albumin sulfate (Bukh Meditec, Vaerlose, DK) pellet coated with hydron polymer type NCC (Interferon Sciences, New Brunswick, N.J.) containing 1 of the agents indicated below was implanted into the corneal pocket. […] mice were divided into 5 groups: control buffer alone; VEGF 300 ng/pellet; Myr-Shh vehicle alone; Myr-Shh 1.5 microg/pellet […]; Myr-Shh+VEGF (1.5 microg/pellet +300 ng/pellet, respectively). Pellets were positioned 1.0 mm from the corneal limbus, and erythromycin ophthalmic ointment (E. Fourera) was applied to each operated eye. The corneas of all mice were routinely examined by slit-lamp biomicroscopy on postoperative day 6 after pellet implantation.
On the same day vessel length and corneal circumferential neovascularity (in degrees) were measured. After completing these measurements, C57BL/6J mice received an intravenous injection of […] of BS-1 lectin FITC-conjugated (Vector Laboratories, Burlingame, Calif.). Thirty minutes later, the animals were sacrificed. The eyes were enucleated and fixed in 1% paraformaldehyde solution. After fixation, the corneas were placed on glass slides and examined by fluorescence microscopy.
To determine the mechanism by which Shh induces angiogenesis both Shh and VEGF-stimulated corneas (see Example 3) were excised and X-gal stained as described in Example 1 after fixation of the whole eye for 1 hour in 1% paraformaldehyde followed by enucleation and fixation of the corneal hemisphere in 1% paraformaldehyde for 30 minutes. […] Endothelial cell immunostaining was done with a rat monoclonal antibody against mouse CD-31 (Pharmigen, San Diego, Calif.) followed by a biotinylated goat anti-rat immunoglobulin secondary antibody. Smooth muscle cells and pericytes were identified with a mouse monoclonal antibody against SM a-actin conjugated with alkaline-phosphatase (Sigma, St. Louis, Mo.) and fibroblasts were identified using an anti-vimentin antibody (Sigma, St. Louis, Mo.).
We then immunostained the Shh-induced corneas with a rabbit polyclonal anti-VEGF antibody (Santa Cruz Biotechnology, Santa Cruz, Calif.) with a biotinylated goat anti-rabbit immunoglobulin as secondary antibody.

Where [2] appears, read: pellet: Myr-Shh 1.5 microg or VEGF 300 ng.

The term IC50 denotes the midpoint of a concentration-inhibition curve.

Take “Shh in which the N-terminal cysteine is replaced with a serine residue: Shh mutant, N-terminal cysteine replaced with serine; functional antagonist”: in the assay with patched-1, the “ability to bind patched-1” value is listed as “indistinguishable from mature Shh”. In addition, the “block of AP induction by mature Shh” value in the assay with C3H10T1/2 cells is on record as “blocks AP induction”. On to “bFGF: Recombinant human bFGF, a known angiogenic protein”, for which the “implants with significant hemoglobin content” value in the assay with matrigel plug is recorded as 3 of 5.

Take `O=C(Cc1cccc(C(F)(F)F)c1)NCCc1nc2ccccc2c(=O)n1-c1ccc(F)cc1` [Compound 50]: the IC50 in assay [1] is under 1 µM. In assay [1], `CC(NC(=O)Nc1cccc(C(F)(F)F)c1)c1nc2ccccc2c(=O)n1-c1ccc(F)cc1` (stereo not drawn) [Compound 73] displayed an IC50 of under 5 µM. The same measure, in the same setting: the value for `CCC(c1nc2ccccc2c(=O)[nH]1)N1CCN(C(=O)Nc2ccc(Cl)c(Cl)c2)C(C)C1` (stereo not drawn) [Compound 45] was under 5 µM; that for `CC(c1nc2ccccc2c(=O)n1-c1ccc(F)cc1)N(C)C(=O)Nc1ccc(C(F)(F)F)cc1` (stereo not drawn) [Compound 54] was under 5 µM. Regarding `CCC(C)N(CCC(=O)NC1CCCc2ccccc21)C(=O)COc1ccc(Cl)cc1` (stereo not drawn) [Compound 49], the IC50 in assay [1] is under 1 µM. Consider `CCCN(C(=O)Nc1cccc(OC)c1)C(C)c1nc2ccccc2c(=O)n1-c1ccc(F)cc1` (stereo not drawn) [Compound 38], for which the IC50 in assay [1] is under 5 µM. On the same count and under the same terms, the value for `CC(c1nc2ccccc2c(=O)n1-c1ccc(F)cc1)N(C)C(=O)Nc1cccc(C(F)(F)F)c1` (stereo not drawn) [Compound 11] was under 5 µM; that for `O=C(NCc1nc2ccccc2c(=O)n1-c1ccc(F)cc1)Nc1cccc(C(F)(F)F)c1` [Compound 44] was under 1 µM. Same read-out and setting: as for `CC(c1nc2ccccc2c(=O)n1-c1ccc(F)cc1)N(C)C(=O)Nc1ccc(Cl)c(Cl)c1` (stereo not drawn) [Compound 53], the figure is under 1 µM; as for `O=C(NCc1nc2ccccc2c(=O)n1-c1ccc(F)cc1)Nc1ccc(Cl)c(Cl)c1` [Compound 68], under 1 µM.

In assay [1], `CCCN(C(=O)Nc1cccc(Cl)c1)C(C)c1nc2ccccc2c(=O)n1-c1ccc(F)cc1` (stereo not drawn) [Compound 34] had an IC50 of under 5 µM. As to `CCCCc1ccc(C(=O)N(Cc2ccccc2)C(CC)c2nc3ccccc3c(=O)n2-c2ccc(C)cc2)cc1` (stereo not drawn) [Compound 40], the IC50 in assay [1] was under 10 µM.

Consider VEGF [reference compound], for which the “X-gal staining (Ptc 1 expression) of corneas” value in the assay with mouse cornea (Ptc1-lacZ corneas) is given as “did not stain with X-gal”. In addition, in the assay on mouse cornea (compared with Shh), the “mean number of vascular lumens per cross section” value is “higher”. For the same compound, in the assay with mouse cornea (setting [2]), the maximum vessel lengths was 700±70 um and the “vessel diameters (mean)” value stood at 8±3 um. Moreover, the neovascular growth result in the assay with mouse cornea (pellet: Myr-Shh 1.5 microg or VEGF 300 ng, day 6) is on record as “significant neovascular growth”. Turning to `CC(c1nc2ccccc2c(=O)n1-c1ccc(F)cc1)N(C)C(=O)Nc1cccc(SC(F)(F)F)c1` (stereo not drawn) [Compound 52], in assay [1], the IC50 was under 1 µM. In assay [1], `CC(c1nc2ccccc2c(=O)n1-c1ccc(F)cc1)N(C)C(=O)Nc1ccc(-c2ccccc2)cc1` (stereo not drawn) [Compound 56] returned an IC50 of under 10 µM.

In assay [1], `COc1cccc(NC(=O)NCc2nc3ccccc3c(=O)n2-c2ccc(F)cc2)c1C` [Compound 71] gave a 50% inhibitory concentration (IC50) of under 10 µM.

For the compound `CC(C)c1cccc(NC(=O)N(C)C(C)c2nc3ccccc3c(=O)n2-c2ccc(F)cc2)c1` (stereo not drawn) [Compound 57], in assay [1], the IC50 was under 10 µM.
